Source: publication PMC11026380, “Statine-based peptidomimetic compounds as inhibitors for SARS-CoV-2 main protease (SARS-CoV‑2 Mpro)” (Scientific Reports, 2024)
“Also recorded” adds a separate entry of the source.

What was measured:
[1] = system: SARS-CoV-2 B.1 lineage isolate; experiment: microbe, parasite or virus in culture; conditions: Severe acute respiratory syndrome coronavirus 2, Calu-3, 24 h
[2] = system: SARS-CoV-2 B.1 lineage isolate; experiment: in vitro; conditions: human
[3] = Cytotoxicity by methylene blue viability assay; conditions: human
SARS-CoV-2 Mpro = SARS-CoV-2 Mpro (Severe acute respiratory syndrome coronavirus 2, UniProt P0DTD1); experiment: biochemical; conditions: enzyme 1.5 μM, substrate 50 μM; for IC50 / IC50 (µM): FRET, 15 min preincubation at 37 °C; for Emax: read-out: Maximum inhibition (%), efficacy compared to negative control (vehicle, DMSO)
in vitro = conditions: human
[4] = system: SARS-CoV-2 B.1 lineage isolate
Calu-3 cells = experiment: Cytotoxicity by methylene blue viability assay; conditions: Calu-3 cells
SARS-CoV-2 = conditions: comparator values quoted in text; cited from earlier work

Row | SMILES | melting point | IC50 (SARS-CoV-2 Mpro) | Emax (SARS-CoV-2 Mpro; compounds 0.001 to 1000 μM) | other results
1 | COC(=O)[C@H](Cc1ccccc1)NC(=O)C[C@H](O)[C@H](Cc1ccccc1)NC(=O)OC(C)(C)C | 79 to 80 °C |  |  | 
2 | COC(=O)[C@@H]1CCCN1C(=O)C[C@H](OC(C)=O)[C@H](Cc1ccccc1)NC(=O)OC(C)(C)C | 90 to 92 °C |  |  | 
3 | COC(=O)N[C@H](C(=O)N[C@@H](Cc1ccccc1)[C@@H](O)CN(Cc1ccc(-c2ccccn2)cc1)NC(=O)[C@@H](NC(=O)OC)C(C)(C)C)C(C)(C)C [ATV, atazanavir, reference compound] |  |  |  | EC50 [1]: 1.53 ± 0.3 µM; selectivity ratio [2]: > 131; CC50 at 72 h [3]: > 200 µM
4 | COC(=O)[C@H](CO)NC(=O)C[C@H](O)[C@H](Cc1ccccc1)NC(=O)OC(C)(C)C [Compound 7a] |  | > 1000 µM | 70% | 
5 | COC(=O)[C@H](Cc1ccc(O)cc1)NC(=O)C[C@H](O)[C@H](Cc1ccccc1)NC(=O)OC(C)(C)C [Compound 7b] | 60 to 62 °C | > 1000 µM | 70% | 
6 | COC(=O)[C@@H](NC(=O)C[C@H](O)[C@H](Cc1ccccc1)NC(=O)OC(C)(C)C)[C@H](C)O [Compound 7c] | 124 to 125 °C |  | < 50% | 
7 | COC(=O)[C@@H](O)CNC(=O)C[C@H](O)[C@H](Cc1ccccc1)NC(=O)OC(C)(C)C [Compound 7d] | 65 to 66 °C | 0.924 µM | > 70% | CC50 at 72 h (in vitro): > 200 µM; EC50 [1]: 1.76 ± 0.3 µM; selectivity ratio [2]: > 114; Inhibition of SARS-CoV-2 replication [4]: roughly 80%; IC50 (µM) (SARS-CoV-2 Mpro): sub-micromolar range
8 | COC(=O)[C@H](CC(C)C)NC(=O)C[C@H](O)[C@H](Cc1ccccc1)NC(=O)OC(C)(C)C [Compound 7e] |  |  | < 50% | 
9 | COC(=O)[C@@H](NC(=O)CC(O)C(Cc1ccccc1)NC(=O)OC(C)(C)C)C(C)C (some centres unmarked) [Compound 7h] |  |  |  | Maximum inhibition (%) (SARS-CoV-2 Mpro; efficacy compared to negative control (vehicle, DMSO), compounds 0.001 to 1000 μM): < 50%
10 | COC(=O)[C@H](COC(C)=O)NC(=O)C[C@H](OC(C)=O)[C@H](Cc1ccccc1)NC(=O)OC(C)(C)C [Compound 8a] | 97 to 98 °C | 1000 µM | 50% | 
11 | COC(=O)[C@H](Cc1ccc(OC(C)=O)cc1)NC(=O)C[C@H](OC(C)=O)[C@H](Cc1ccccc1)NC(=O)OC(C)(C)C [Compound 8b] | 88 to 89 °C | > 1000 µM | 65% | 
12 | COC(=O)[C@@H](NC(=O)C[C@H](OC(C)=O)[C@H](Cc1ccccc1)NC(=O)OC(C)(C)C)[C@H](C)OC(C)=O [Compound 8c] | 54 to 55 °C | 2.45 µM | ≥ 60% | 
13 | COC(=O)[C@H](CC(C)C)NC(=O)C[C@H](OC(C)=O)[C@H](Cc1ccccc1)NC(=O)OC(C)(C)C [Compound 8d] | 94 to 95 °C | 0.391 µM | ≥ 60% | 
14 | COC(=O)[C@H](Cc1ccccc1)NC(=O)C[C@H](OC(C)=O)[C@H](Cc1ccccc1)NC(=O)OC(C)(C)C [Compound 8e] | 89 to 91 °C | 0.606 µM | > 70% | CC50 at 72 h (in vitro): > 200 µM; EC50 [1]: 1.79 ± 0.1 µM; selectivity ratio [2]: > 112; Inhibition of SARS-CoV-2 replication [4]: roughly 80%; IC50 (µM) (SARS-CoV-2 Mpro): sub-micromolar range
15 | COC(=O)[C@@H](NC(=O)C[C@H](OC(C)=O)[C@H](Cc1ccccc1)NC(=O)OC(C)(C)C)C(C)C [Compound 8g] |  | > 1000 µM | 66% | 
16 | COC(=O)[C@H](CO)NC(=O)C[C@H](O)[C@@H](N)Cc1ccccc1.O=C(O)C(F)(F)F [Compound 9a] | 120 to 121 °C | > 1000 µM | 57% | 
17 | COC(=O)[C@H](Cc1ccc(O)cc1)NC(=O)C[C@H](O)[C@@H](N)Cc1ccccc1.O=C(O)C(F)(F)F [Compound 9b] | 98 to 99 °C | > 1000 µM | 52% | 
18 | COC(=O)[C@H](CC(C)C)NC(=O)C[C@H](O)[C@@H](N)Cc1ccccc1.O=C(O)C(F)(F)F [Compound 9d] | 147 to 148 °C | 778 µM | 58% | 
19 | COC(=O)[C@H](Cc1ccccc1)NC(=O)C[C@H](O)[C@@H](N)Cc1ccccc1 [Compound 9e] |  | > 1000 µM | 51% | 
20 | COC(=O)[C@@H]1CCCN1C(=O)C[C@H](O)[C@@H](N)Cc1ccccc1 [Compound 9f] |  | > 1000 µM | 68% | 
21 | COC(=O)[C@@H](NC(=O)C[C@H](O)[C@@H](N)Cc1ccccc1)C(C)C.O=C(O)C(F)(F)F [Compound 9g] |  | 0.617 µM | > 70% | EC50 [1]: 1.51 ± 0.2 µM; selectivity ratio [2]: > 132; Cytotoxicity (in words) (Calu-3 cells): no cytotoxicity; also recorded: non-cytotoxic; CC50 at 72 h [3]: > 200 µM; Inhibition of SARS-CoV-2 replication [4]: roughly 80%; IC50 (µM) (SARS-CoV-2 Mpro): sub-micromolar range
22 | CC(C)(C)OC(=O)N[C@@H](Cc1ccccc1)[C@@H](O)CC(=O)N[C@@H](Cc1ccccc1)C(=O)NN [Compound 10] |  | > 1000 µM | 61% | 
23 | CC(C)C(=O)OC[C@H]1O[C@@H](n2ccc(NO)nc2=O)[C@H](O)[C@@H]1O [molnupiravir] |  |  |  | EC50 (SARS-CoV-2): 1.97 µM
